# Measurements published in patent publication US20260285850A1, “SUBSTITUTED OXAZOLIDINONES AND IMIDAZOLINONES AS HERBICIDES” (FMC CORPORATION, priority 2023, published 2026).
# Assays:
# Assay type in all cases: in vivo
# [1] = system: green foxtail (Setaria viridis); test: Test A postemergence application, visual injury rating 0-100
# Method in brief: (§1)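 Compound in a non-phytotoxic, surfactant-containing solvent is applied either as a directed soil spray before seedlings emerge or onto emerged plants 2-10 cm tall; pots hold a loam-sand blend. Plants grow 10 days under greenhouse conditions and are rated by eye against untreated controls (0 no effect, 100 complete control).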
# [2] = system: wheat (Triticum aestivum); test: as above
# Method in brief: as §1
# [3] = system: palmer (palmer amaranth, palmer pigweed, Amaranthus palmeri); test: as above
# Method in brief: as §1
# [4] = system: kochia (Bassia scoparia); test: as above
# Method in brief: as §1
# [5] = system: ragweed (common ragweed, Ambrosia artemisiifolia); test: as above
# Method in brief: as §1
# [6] = system: oat, wild (wild oat, Avena fatua); test: as above
# Method in brief: as §1
# [7] = system: ryegrass, Italian (italian ryegrass, Lolium multiflorum); test: as above
# Method in brief: as §1
# [8] = system: corn (Zea mays); test: as above
# Method in brief: as §1
# [9] = system: soybean (Glycine max); test: as above
# Method in brief: as §1
# [10] = system: horseweed (Erigeron canadensis); test: as above
# Method in brief: as §1
# [11] = system: blackgrass (Alopecurus myosuroides); test: as above
# Method in brief: as §1
# [12] = system: barnyardgrass (Echinochloa crus-galli); test: as above
# Method in brief: as §1
# [13] = system: ducksalad (Heteranthera limosa); test: Test B flooded paddy test, visual plant response rating 0-100; details: 250 g ai/ha, Flood, applied to paddy water, evaluated after 13 days
# Method in brief: (§2)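 Plants were grown to the 2-leaf stage, then pots were flooded to 3 cm above the soil and compound was applied directly to the paddy water, with that depth kept throughout.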
# [14] = system: barnyardgrass (Echinochloa crusgalli); test: as above; details: 250 g ai/ha, Flood, applied to paddy water, evaluated after 13 days
# Method in brief: as §2
# [15] = system: sedge, umbrella (small-flower umbrella sedge, Cyperus difformis); test: as above; details: 250 g ai/ha, Flood, applied to paddy water, evaluated after 13 days
# Method in brief: as §2
# [16] = system: rice (Oryza sativa); test: as above; details: 250 g ai/ha, Flood, applied to paddy water, evaluated after 13 days
# Method in brief: as §2
# [17] = system: green foxtail (Setaria viridis); test: Test A preemergence soil spray, visual injury rating 0-100; details: 10 days
# Method in brief: as §1
# [18] = system: wheat (Triticum aestivum); test: as above; details: 10 days
# Method in brief: as §1
# [19] = system: palmer (palmer amaranth, palmer pigweed, Amaranthus palmeri); test: as above; details: 10 days
# Method in brief: as §1
# [20] = system: kochia (Bassia scoparia); test: as above; details: 10 days
# Method in brief: as §1
# [21] = system: ragweed (common ragweed, Ambrosia artemisiifolia); test: as above; details: 10 days
# Method in brief: as §1
# [22] = system: oat, wild (wild oat, Avena fatua); test: as above; details: 10 days
# Method in brief: as §1
# [23] = system: ryegrass, Italian (italian ryegrass, Lolium multiflorum); test: as above; details: 10 days
# Method in brief: as §1
# [24] = system: corn (Zea mays); test: as above; details: 10 days
# Method in brief: as §1
# [25] = system: soybean (Glycine max); test: as above; details: 10 days
# Method in brief: as §1
# [26] = system: blackgrass (Alopecurus myosuroides); test: as above; details: 10 days
# Method in brief: as §1
# [27] = system: barnyardgrass (Echinochloa crus-galli); test: as above; details: 10 days
# Method in brief: as §1
# [28] = 62 g ai/ha, postemergence, 10 days, 0 = no effect, 100 = complete control
# [29] = Postemergence, 16 g ai/ha, greenhouse 10 days, 0 no effect, 100 complete control
# [30] = 62 g ai/ha, 0 = no effect, 100 = complete control
compound,measurement,setting,value
COC(=O)C1CC(NC(=O)C2(C)CN(c3cc(F)cc(Cl)c3)C(=O)O2)C1 (centres unmarked) [Compound 145],"Foxtail, Green plant response rating (0-100)",[1]; [28],90
same,"Foxtail, Green plant response rating (0 to 100 scale)",[1]; [29],90
same,Wheat plant response rating (0-100),[2]; [28],90
same,Wheat plant response rating (0 to 100 scale),[2]; [29],90
same,"Pigweed, Palmer plant response rating (0-100)",[3]; [28],70
same,"Pigweed, Palmer plant response rating (0 to 100 scale)",[3]; [29],10
same,Kochia plant response rating (0-100),[4]; [28],90
same,Kochia plant response rating (0 to 100 scale),[4]; [29],60
same,Ragweed plant response rating (0-100),[5]; [28],20
same,Ragweed plant response rating (0 to 100 scale),[5]; [29],0
same,"Oat, Wild plant response rating (0-100)",[6]; [28],90
same,"Oat, Wild plant response rating (0 to 100 scale)",[6]; [29],90
same,"Ryegrass, Italian plant response rating (0-100)",[7]; [28],90
same,"Ryegrass, Italian plant response rating (0 to 100 scale)",[7]; [29],70
same,Corn plant response rating (0-100),[8]; [28],100
same,Corn plant response rating (0 to 100 scale),[8]; [29],100
same,Soybean plant response rating (0-100),[9]; [28],80
same,Soybean plant response rating (0 to 100 scale),[9]; [29],50
same,Horseweed plant response rating (0-100),[10]; [28],30
same,Horseweed plant response rating (0 to 100 scale),[10]; [29],30
same,Blackgrass plant response rating (0-100),[11]; [28],100
same,Blackgrass plant response rating (0 to 100 scale),[11]; [29],90
same,Barnyardgrass plant response rating (0-100),[12]; [28],100
same,Barnyardgrass plant response rating (0 to 100 scale),[12]; [29],100
same,"Plant response rating, Ducksalad (0 to 100 scale, 0 is no effect and 100 is complete control)",[13],60
same,"Plant response rating, Barnyardgrass (0 to 100 scale, 0 is no effect and 100 is complete control)",[14],60
same,"Plant response rating, Sedge, Umbrella (0 to 100 scale, 0 is no effect and 100 is complete control)",[15],50
same,"Plant response rating, Rice (0 to 100 scale, 0 is no effect and 100 is complete control)",[16],40
same,"Foxtail, Green plant response rating","[17]; 16 g ai/ha, 0 to 100 scale",10
same,"Foxtail, Green plant response rating (0-100)",[17]; [30],90
same,Wheat plant response rating,"[18]; 16 g ai/ha, 0 to 100 scale",80
same,Wheat plant response rating (0-100),[18]; [30],90
same,"Pigweed, Palmer plant response rating","[19]; 16 g ai/ha, 0 to 100 scale",0
same,"Pigweed, Palmer plant response rating (0-100)",[19]; [30],0
same,Kochia plant response rating,"[20]; 16 g ai/ha, 0 to 100 scale",0
same,Kochia plant response rating (0-100),[20]; [30],0
same,Ragweed plant response rating,"[21]; 16 g ai/ha, 0 to 100 scale",0
same,Ragweed plant response rating (0-100),[21]; [30],0
same,"Oat, Wild plant response rating","[22]; 16 g ai/ha, 0 to 100 scale",20
same,"Oat, Wild plant response rating (0-100)",[22]; [30],80
same,"Ryegrass, Italian plant response rating","[23]; 16 g ai/ha, 0 to 100 scale",30
same,"Ryegrass, Italian plant response rating (0-100)",[23]; [30],100
same,Corn plant response rating,"[24]; 16 g ai/ha, 0 to 100 scale",10
same,Corn plant response rating (0-100),[24]; [30],80
same,Soybean plant response rating,"[25]; 16 g ai/ha, 0 to 100 scale",0
same,Soybean plant response rating (0-100),[25]; [30],50
same,Blackgrass plant response rating,"[26]; 16 g ai/ha, 0 to 100 scale",0
same,Blackgrass plant response rating (0-100),[26]; [30],80
same,Barnyardgrass plant response rating,"[27]; 16 g ai/ha, 0 to 100 scale",20
same,Barnyardgrass plant response rating (0-100),[27]; [30],80
